{"source": "patent US5130327A", "about": "“Indole derivatives” (Consejo Superior de Investigaciones Cientificas, priority 1989, dated 1992)", "key": {"[1]": {"biological_target": "T1, Bovine Brain MAO A (Bos taurus, UniProt P21398)", "T1 construct": "in vitro activity of MAO from bovine brain mitochondria; from tissue; host or cells: bovine brain mitochondria", "T1 sequence (P21398 1-527)": "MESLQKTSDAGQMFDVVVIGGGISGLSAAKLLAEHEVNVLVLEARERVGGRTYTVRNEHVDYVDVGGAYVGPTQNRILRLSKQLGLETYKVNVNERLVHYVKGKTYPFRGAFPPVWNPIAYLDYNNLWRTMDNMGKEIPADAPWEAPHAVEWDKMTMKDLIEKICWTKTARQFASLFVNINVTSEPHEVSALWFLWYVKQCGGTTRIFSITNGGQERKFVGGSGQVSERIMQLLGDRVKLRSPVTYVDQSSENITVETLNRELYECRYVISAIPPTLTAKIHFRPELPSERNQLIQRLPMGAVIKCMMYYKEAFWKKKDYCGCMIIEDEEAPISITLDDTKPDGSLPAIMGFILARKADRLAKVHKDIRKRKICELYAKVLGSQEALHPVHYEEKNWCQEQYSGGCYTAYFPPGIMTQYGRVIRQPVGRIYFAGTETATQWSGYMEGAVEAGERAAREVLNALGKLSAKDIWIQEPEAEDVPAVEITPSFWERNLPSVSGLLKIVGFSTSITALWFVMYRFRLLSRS", "assay": "In vitro inhibition of MAO from bovine brain mitochondria, tyramine as substrate (form A)", "type": "biochemical", "conditions": "pI50 = -log [I50], molar", "excerpt": "The following table illustrates the structure of particular compounds of the invention (1). It also gives specific pI50 values where pI50 =-log [I50 ] where [I50 ] is the molar concentration of test compound which inhibits 50% of the in vitro activity of MAO from bovine brain mitochondria using tyramine as substrate."}, "[2]": {"tested_on": "cerebral β-adrenergic receptors", "assay": "Effects of chronic treatment on β receptors", "type": "in vivo", "conditions": "chronic administration in the rat", "experimental": "Effects of chronic treatment on α2 -, β- and 5-HT2 receptors. The test compounds, at a dose of 10 mg/kg/day i.p., were administered for 21 days to Wistar male rats (250±2.4 g). After treatment the animals were killed, brains were dissected and cortices were scraped from the dorsal surface of the […]. ^3 H UK 14304, ^3 H Dihydroalprenalol and ^3 H Ketanserin were used as ligands in the binding studies."}, "[3]": {"assay": "Potentiation of 5-HT", "type": "in vivo"}, "[4]": {"tested_on": "brain, duodenum and liver MAO A", "assay": "In vivo inhibition of MAO A of different tissues after chronic treatment", "parameters": "species or system rat", "conditions": "cerebral vs intestinal or hepatic", "experimental": "4. \"In vivo\" inhibition of MAO A and B of different tissues after chronic treatment.\nIn order to evaluate the effect of compounds in a chronic treatment, the inhibitory activity on brain, duodenum and liver MAO A and B has been studied \"in vivo\". Wistar male rats were treated at two dose levels, 0.1 and 0.25 mg/kg i.p. for 15 and 21 days. Control rats received similar amounts of saline solution."}, "[5]": {"tested_on": "reuptake of dopamine", "assay": "Reuptake of dopamine in vitro, crude synaptosomal preparation", "type": "biochemical, rat", "experimental": "(§1) Influence on the reuptake of monoamines \"in vitro\" was also studied. The effect of the compounds on the reuptake of 5-HT noradrenaline and dopamine was studied using Wistar male rats (350±2.5 g). They were kept under controlled light and temperature conditions and fed \"ad libitum\" until killed. The animals were killed by decapitation and brains were frozen and stored at -20° C. prior to analysis. Brains were dissected on an ice-filled petri dish. The cortices for 5-HT and noradrenaline assay and striatum (including caudate nucleus, putamen and globus pallidus) for dopamine assay were immediately weighed and homogenized. […] All drugs used in the study were dissolved in the incubation medium in a concentration range 10^-4 to 10^-8 M and were preincubated with the crude synaptosomal preparation obtained from the treated brains, for 5 min. at 37° C. or 0° C. before the addition of the labelled substrate."}, "[6]": {"assay": "Behavioural Despair (Porsolt's test)", "type": "in vivo", "experimental": "The pharmacological profile was carried out assessing the antidepressant activity with the following tests:\nBehavioural Despair (Porsolt et al. Arch. Int. Pharmacodyn; 229:327-336, 1977),"}, "[7]": {"assay": "Interaction with clonidine-induced hypoactivity", "type": "in vivo", "excerpt": "(§2) The action mechanism was studied in acute and chronic treatments on the interaction response with clonidine, salbutamol (Richard, J. Intern. J. Neuroscience, 9:17-19, 1979) and tetrabenazine (Pletscher, A.: An. N.Y. Aca. Sci. 80:1039-1045, 1959), and the response to the potentiation with L-dopa, L-tryptophan, tryptamine (Jalfre, M. et al., Arch. Int. Pharmacodyn, 159:194-221, 1982) and β-phenylethylamine (Ortmann, et al, Psychopharmacol. 84:22-27, 1984)."}, "[8]": {"tested_on": "reuptake of 5-HT", "assay": "Reuptake of 5-HT in vitro, crude synaptosomal preparation", "type": "biochemical, rat", "experimental": "as §1"}, "[9]": {"tested_on": "reuptake of noradrenaline", "assay": "Reuptake of noradrenaline in vitro, crude synaptosomal preparation", "type": "biochemical, rat", "experimental": "Influence on the reuptake of monoamines \"in vitro\" was also studied. The effect of the compounds on the reuptake of 5-HT noradrenaline and dopamine was studied using Wistar male rats (350±2.5 g). They were kept under controlled light and temperature conditions and fed \"ad libitum\" until killed. The animals were killed by decapitation and brains were frozen and stored at -20° C. prior to analysis. Brains were dissected on an ice-filled petri dish. The cortices for 5-HT and noradrenaline assay and striatum (including caudate nucleus, putamen and globus pallidus) for dopamine assay were immediately weighed and homogenized. The standard incubation medium contained: 1.7 μM ^14 C-5-HT); 0.5μM ^3 H-noradrenaline or 1 μM ^3 H-dopamine with 0.1 ml of the crude synaptosomal preparation. All drugs used in the study were dissolved in the incubation medium in a concentration range 10^-4 to 10^-8 M and were preincubated with the crude synaptosomal preparation obtained from the treated brains, for 5 min. at 37° C. or 0° C. before the addition of the labelled substrate."}, "[10]": {"assay": "Interaction with salbutamol-induced hypoactivity", "type": "in vivo", "excerpt": "as §2"}, "[11]": {"assay": "\"Cheese effect\" by tyramine potentiation", "conditions": "in vivo", "experimental": "The secondary effects were studied mainly on the cardiovascular system, and the effects on the arterial pressure, heart rate and rhythm, P-R interval and isolated organ (rabbit aortic rings and isolated atria), were evaluated both after acute and chronic treatments. In the same way, the \"cheese effect\" was studied by means of the tyramine potentiation."}, "[12]": {"assay": "Antagonism of tetrabenazine effects (ptosis and catalepsy)", "type": "in vivo", "conditions": "ptosis and catalepsy at 60 and 120 minutes after administration; read-out: ED50, antagonism of effects induced by tetrabenazine", "excerpt": "as §2"}}, "note": "Read-outs that look alike come from different tables or passages of the source."}
{"compound": "C#CCN(C)Cc1cc2cc(OC)ccc2n1C", "note": "[(l), N-methyl-N-propargyl-2-(1-methyl-5-methoxy-indolyl)methylamine]", "values": [{"measurement": "IC50", "setting": "[1]", "value": 8.91, "unit": "nM"}, {"measurement": "Number or affinity of cerebral β-adrenergic receptors", "setting": "[2]", "value": "does not modify"}, {"measurement": "ED50", "setting": "[3]", "value": 0.34, "unit": "mg/kg"}, {"measurement": "MAO A inhibitory effect, comparison of tissues", "setting": "[4]", "value": "higher on cerebral MAO A than on intestinal or hepatic MAO A"}, {"measurement": "Inhibition of the reuptake of dopamine", "setting": "[5]", "value": "very weak inhibitor"}, {"measurement": "Potency as inhibitor of dopamine reuptake relative to amitryptiline", "setting": "[5]", "value": "similar"}, {"measurement": "Potency as inhibitor of dopamine reuptake relative to imipramine", "setting": "[5]", "value": "ten fold"}, {"measurement": "minimal effective dose", "setting": "[6]; acute treatment, read-out: Porsolt's test MED, acute", "value": 50, "unit": "mg/kg"}, {"measurement": "minimal effective dose", "setting": "[6]; chronic treatment, read-out: Porsolt's test MED, chronic", "value": 20, "unit": "mg/kg"}, {"measurement": "Persistence of activity in Porsolt's test", "setting": "[6]; in vivo", "value": "at least 24 hours"}, {"measurement": "Hypoactivity by clonidine, acute treatment", "setting": "[7]; acute treatment", "value": "not modifying it"}, {"measurement": "Hypoactivity by clonidine, chronic treatment", "setting": "[7]; chronic treatment (5 days)", "value": "antagonized"}, {"measurement": "Inhibition of the reuptake of 5-HT", "setting": "[8]", "value": "potent inhibitor"}, {"measurement": "Potency as inhibitor of 5-HT reuptake relative to chlorimipramine or imipramine", "setting": "[8]", "value": "much higher"}, {"measurement": "Effect on the reuptake of noradrenaline", "setting": "[9]", "value": "no effect"}, {"measurement": "Hypoactivity by salbutamol, acute treatment", "setting": "[10]; acute treatment", "value": "not modifying it"}, {"measurement": "Hypoactivity by salbutamol, chronic treatment", "setting": "[10]; chronic treatment (14 days)", "value": "antagonized"}, {"measurement": "\"Cheese effect\"", "setting": "[11]", "value": "some \"cheese effect\""}, {"measurement": "ED50", "setting": "[12]", "value": "< 6", "unit": "mg/kg"}]}
